{
  "source": "patent US9127016B2",
  "about": "“Small molecule inhibitors of Dusp6 and uses therefor” (University of Pittsburgh—Of the Commonwealth System of …, priority 2009, dated 2015)",
  "system": "FGF signaling (Tg(Dusp6:d2EGFP)pt6 reporter)",
  "assay": "Transgenic zebrafish chemical screen, d2EGFP fluorescence",
  "type": "in vivo",
  "conditions": "for d2EGFP fluorescence in treated transgenic embryos: 24 hpf embryos, 6-8 hours, analogs even at four-fold higher concentrations",
  "description": "Tg(dusp6:d2EGFP)pt6 embryos were obtained by natural crossings and incubated at 28.5° C. until they reached 24 hpf. Five transgenic embryos were placed into each well from a 96-well plate in 200 μl of E3, and a 0.5% DMSO solution was added along with compound from each library at 10 μM. The NCI diversity set (NCl/NIH), the Natural Products library (MicroSource Discovery Systems Inc.) and Phosphatase targeted set (Chembridge) were screened in this study. (E)-2-Benzylidene-3-(cyclohexylamino)-2,3-dihydro-1H-inden-1-one (BCI; also known as NSC150117) was identified as a compound that enhanced fluorescence in treated transgenic embryos. Treated embryos were photographed under the same settings for exposure, gain and magnification for each picture using a MZFLIII (Leica) microscrope and fluorescent illumination for GFP using endow cube (Chroma Technology Corp., Rockingham, Vt.). Qimaging software and the Retiga Exi camera (Qimaging, Burnaby, BC Canada) were used to capture the images.\nWe previously described the generation of a transgenic zebrafish line, (Tg(Dusp6:d2EGFP)pt6) that expresses destabilized green fluorescent protein (d2EGFP) under the control of FGF signaling (Molina, G. A., et al. BMC Dev Biol 7, 62 (2007)). Using Tg(Dusp6:d2EGFP) embryos as a biosensor for FGF signaling, we screened over 5000 diverse compounds assembled from chemical libraries for small molecule modulators of this pathway. Five transgenic embryos at 24 hours post fertilization (hpf) were arrayed into each well of a 96-well plate containing test compounds at 10 μM. d2EGFP intensity in treated embryos was visually analyzed and compared to vehicle control (0.5% DMSO) after 6-8 hours. […] To confirm that BCI hyperactivated FGF signaling, we treated embryos prior to gastrulation (5 hpf), and we analyzed by whole mount in situ hybridization, the expression of ntl (zebrafish brachyury), a known FGF target gene (Latinkic, B. V. et al. Genes Dev 11, 3265-76 (1997)). […] We next determined the BCI structural features required to enhance FGF signaling. Two analogs, (E)-2-benzylidene-2,3-dihydro-1H-inden-1-one (BI) lacking the cyclohexylamino group, and 3-(cyclohexylamino)-2,3-dihydro-1H-inden-1-one (ICD) lacking the benzylidene group were synthesized).",
  "data": [
    {"smiles": "O=C1/C(=C/c2ccccc2)C(NC2CCCCC2)c2ccccc21", "note": "(stereo not drawn) [Compound 3, (E)-2-benzylidene-3-(cyclohexylamino)-2,3-dihydro-1H-inden-1-one]", "values": [
      {"measurement": "d2EGFP fluorescence in treated transgenic embryos", "result": "enhanced d2EGFP fluorescence in a concentration-dependent manner"},
      {"measurement": "d2EGFP expression in the MHB of Tg(Dusp6:d2EGFP); ace mutant embryos", "setting": "BCI 10 μM, Fgf8-deficient embryos", "result": "did not induce d2EGFP expression"}
    ]},
    {"smiles": "O=C1CC(NC2CCCCC2)c2ccccc21", "note": "(stereo not drawn) [Compound 17, 3-(Cyclohexylamino)-2,3-dihydro-1H-inden-1-one]", "values": [
      {"measurement": "d2EGFP fluorescence in treated transgenic embryos", "result": "inactive"}
    ]}
  ]
}
